# Test results from patent US12448388B2, “PRMT5 inhibitors and uses thereof” (Gilead Sciences, Inc., priority 2023, dated 2025).
# Read-outs that look alike come from different tables or passages of the source.
# System: HCT116 MTAP-deleted cell lines
# Test: Cell viability assay (CellTiter-Glo, 7 days), HCT116 MTAP-deleted
# Type: cell-based
# Settings: Homo sapiens, HCT-116, HCT116 MTAP-deleted, class symbols, read-out: CC50
# Method: Control compounds were analyzed in parallel each time for quality control. In Brief, on Day -1, a serial dilution of stock compounds in DMSO was performed using BioMek liquid handlers and dispensed using Echo acoustic dispenser into 384 well plates. Both tool compounds and sample compounds were spotted in the same plate for a dose response of PRMT5 inhibitors. Compound plates were stored as frozen until the cells were ready for seeding. […] After equilibrating the plate in room temperature, the cells were incubated for 7 days inside the sealed incubator set at 37° C. with 90% humidity and 5% CO2. On Day 7, the viability of cells was measured using a CTG assay kit (CellTitre-Glo;Promega cat no. G7573). Shortly, 40 μl per well of luminescent cell viability assay reagent were dispensed using EL460 liquid dispenser 5 μl cassette. CTG luminescence signal was measured using an EnVision plate reader (PerkinElmer) in accordance with manufacturer's instruction. […] Selectivity with * is artificially high due to limited solubility of the compound hampering accurate measurement of WT CC50.
SMILES,CC50 (cell viability) [nM],CC50 (cell viability assay) [nM]
"Nc1nc2cc(F)c(C(=O)N3CCC[C@@H]4OCc5cc(-c6cnn(C(F)F)c6)ccc5[C@@H]43)cc2n2cncc12 (racemic) [Ff-296, Rac-(4-amino-7-fluoroimidazo[1,5-a]quinoxalin-8-yl)((4aS,10bS)-8-(1-(difluoromethyl)-1H-pyrazol-4-yl)-2,3,4,4a,6,10b-hexahydro-1H-isochromeno[4,3-b]pyridin-1-yl)methanone]",< 100,
"Nc1nc2cc(F)c(C(=O)N3CCC[C@@H]4OCc5cc(-c6cnn(C7CC7)c6)ccc5[C@@H]43)cc2n2cncc12 (racemic) [Ff-297, Rac-(4-amino-7-fluoroimidazo[1,5-a]quinoxalin-8-yl)((4aS,10bS)-8-(1-cyclopropyl-1H-pyrazol-4-yl)-2,3,4,4a,6,10b-hexahydro-1H-isochromeno[4,3-b]pyridin-1-yl)methanone]",< 100,
"Nc1nc2cc(F)c(C(=O)N3CCC[C@@H]4OCc5cc(-c6ccn(C(F)F)n6)ccc5[C@@H]43)cc2n2cncc12 (racemic) [Ff-298, Rac-(4-amino-7-fluoroimidazo[1,5-a]quinoxalin-8-yl)((4aS,10bS)-8-(1-(difluoromethyl)-1H-pyrazol-3-yl)-2,3,4,4a,6,10b-hexahydro-1H-isochromeno[4,3-b]pyridin-1-yl)methanone]",< 100,
"COc1ccc2c(c1F)CO[C@H]1CCCN(C(=O)c3cc4c(cc3F)nc(N)c3cncn34)[C@@H]21 (racemic) [Ff-299, Rac-(4-amino-7-fluoroimidazo[1,5-a]quinoxalin-8-yl)((4aS,10bS)-7-fluoro-8-methoxy-2,3,4,4a,6,10b-hexahydro-1H-isochromeno[4,3-b]pyridin-1-yl)methanone]",< 100,
"COc1cc2c(cc1F)[C@H]1[C@H](CCCN1C(=O)c1cc3c(cc1F)nc(N)c1cncn13)OC2 (racemic) [Ff-300, Rac-(4-amino-7-fluoroimidazo[1,5-a]quinoxalin-8-yl)((4aS,10bS)-9-fluoro-8-methoxy-2,3,4,4a,6,10b-hexahydro-1H-isochromeno[4,3-b]pyridin-1-yl)methanone]",< 100,
"Nc1nc2cc(F)c(C(=O)N3CCC[C@@H]4OCc5cc(C6CC6)ccc5[C@@H]43)cc2n2cncc12 (racemic) [Ff-301, Rac-(4-amino-7-fluoroimidazo[1,5-a]quinoxalin-8-yl)((4aS,10bS)-8-cyclopropyl-2,3,4,4a,6,10b-hexahydro-1H-isochromeno[4,3-b]pyridin-1-yl)methanone]",< 100,
"Nc1nc2cc(F)c(C(=O)N3CCC[C@@H]4Cc5cc(C(F)(F)F)ccc5[C@@H]43)cc2n2cncc12 (racemic) [Ff-310, Rac-(4-amino-7-fluoroimidazo[1,5-a]quinoxalin-8-yl)((4aR,9bR)-7-(trifluoromethyl)-2,3,4,4a,5,9b-hexahydro-1H-indeno[1,2-b]pyridin-1-yl)methanone]",< 100,
"Nc1nc2cc(F)c(C(=O)N3CCC[C@@H]4Cc5nc(C(F)(F)F)ccc5[C@@H]43)cc2n2cncc12 (racemic) [Ff-314, Rac-(4-amino-7-fluoroimidazo[1,5-a]quinoxalin-8-yl)((4bR,8aR)-2-(trifluoromethyl)-4b,6,7,8,8a,9-hexahydro-5H-cyclopenta[1,2-b:3,4-b′]dipyridin-5-yl)methanone]",< 100,
"C[C@@H]1C[C@@H]2CCc3cc(C(F)(F)F)ccc3[C@@H]2N(C(=O)c2cc3c(cc2F)nc(N)c2cncn23)C1 (racemic) [Ff-322, Rac-(4-amino-7-fluoroimidazo[1,5-a]quinoxalin-8-yl)((3R,4aS,10bR)-3-methyl-8-(trifluoromethyl)-3,4,4a,5,6,10b-hexahydrobenzo[h]quinolin-1(2H)-yl)methanone]",< 100,
"C[C@@H]1C[C@@H]2OCc3nc(C(F)(F)F)ccc3[C@@H]2N(C(=O)c2cc3c(cc2F)nc(N)c2cncn23)C1 (racemic) [Ff-323, Rac-(4-amino-7-fluoroimidazo[1,5-a]quinoxalin-8-yl)((3R,4aS,10bS)-3-methyl-8-(trifluoromethyl)-2,3,4,4a,6,10b-hexahydro-1H-pyrano[3,2-b:5,4-b′]dipyridin-1-yl)methanone]",< 100,
"Nc1nc2cc(F)c(C(=O)N3CCC[C@@H]4Oc5cc(OC(F)(F)F)ccc5[C@@H]43)cc2n2cncc12 (racemic) [Ff-331, Rac-(4-amino-7-fluoroimidazo[1,5-a]quinoxalin-8-yl)((4aS,9bS)-7-(trifluoromethoxy)-3,4,4a,9b-tetrahydrobenzofuro[3,2-b]pyridin-1(2H)-yl)methanone]",< 100,
"Nc1nc2cc(F)c(C(=O)N3CCC[C@@H]4Oc5cc(OC(F)(F)F)c(F)cc5[C@@H]43)cc2n2cncc12 (racemic) [Ff-333, Rac-(4-amino-7-fluoroimidazo[1,5-a]quinoxalin-8-yl)((4aS,9bS)-8-fluoro-7-(trifluoromethoxy)-3,4,4a,9b-tetrahydrobenzofuro[3,2-b]pyridin-1(2H)-yl)methanone]",< 100,
"Cc1ncc2c(N)nc3cc(Cl)c(C(=O)N4CCC[C@@H]5Oc6nc(C(F)(F)F)ccc6[C@@H]54)cc3n12 (racemic) [Ff-334, Rac-4-amino-7-chloro-1-methylimidazo[1,5-a]quinoxalin-8-yl)((4aS,9bS)-7-(trifluoromethyl)-3,4,4a,9b-tetrahydrofuro[2,3-b:4,5-b′]dipyridin-1(2H)-yl)methanone]",< 100,
"Nc1nc2cc(F)c(C(=O)N3CCC[C@@H]4Oc5c(ccc(Cl)c5F)[C@@H]43)cc2n2cncc12 (racemic) [Ff-335, Rac-((4-amino-7-fluoroimidazo[1,5-a]quinoxalin-8-yl)((4aS,9bS)-7-chloro-6-fluoro-3,4,4a,9b-tetrahydrobenzofuro[3,2-b]pyridin-1(2H)-yl)methanone]",< 100,
"Nc1nc2cnc(C(=O)N3CCC[C@@H]4Oc5cc(OC(F)(F)F)c(F)cc5[C@@H]43)cc2n2cncc12 (racemic) [Ff-338, Rac-(4-aminoimidazo[1,5-a]pyrido[3,4-e]pyrazin-8-yl)((4aS,9bS)-8-fluoro-7-(trifluoromethoxy)-3,4,4a,9b-tetrahydrobenzofuro[3,2-b]pyridin-1(2H)-yl)methanone]",< 100,
"Nc1nc2ccc(C(=O)N3CCC[C@@H]4Oc5cc(OC(F)(F)F)c(F)cc5[C@@H]43)cc2n2cncc12 (racemic) [Ff-339, Rac-(4-aminoimidazo[1,5-a]quinoxalin-8-yl)((4aS,9bS)-8-fluoro-7-(trifluoromethoxy)-3,4,4a,9b-tetrahydrobenzofuro[3,2-b]pyridin-1(2H)-yl)methanone]",< 100,
"Nc1nc2cc(F)c(C(=O)N3CCC[C@@H]4Oc5cc(OC(F)(F)F)cc(F)c5[C@@H]43)cc2n2cncc12 (racemic) [Ff-350, Rac-(4-amino-7-fluoroimidazo[1,5-a]quinoxalin-8-yl)((4aS,9bS)-9-fluoro-7-(trifluoromethoxy)-3,4,4a,9b-tetrahydrobenzofuro[3,2-b]pyridin-1(2H)-yl)methanone]",< 100,
"Nc1nc2cc(F)c(C(=O)N3CC[C@H]4C[C@@H]3c3ccc(OC(F)(F)F)cc3O4)cc2n2cncc12 (racemic) [Ff-372, Rac-(4-amino-7-fluoroimidazo[1,5-a]quinoxalin-8-yl)((2S,6R)-9-(trifluoromethoxy)-3,4-dihydro-2H-2,6-methanobenzo[b][1,5]oxazocin-5(6H)-yl)methanone]",,< 100
